Data on three molecules can be found in ChEMBL document CHEMBL1156502, “Stabilized immune modulatory RNA compounds as agonists of Toll-like receptors 7 and 8” (Proc Natl Acad Sci U S A, 2007).

Calls of active or inactive are those of the source. No cut-off for these calls is given here.

Data set [1] in a line: Stability in 1% human serum assessed as full length product after 10 mins. The class given is ADME, cell-free.
Data set [2] deals with T1, Toll-like receptor 7 (Homo sapiens) (UniProt Q9NYK1).
T1 sequence (whole entry): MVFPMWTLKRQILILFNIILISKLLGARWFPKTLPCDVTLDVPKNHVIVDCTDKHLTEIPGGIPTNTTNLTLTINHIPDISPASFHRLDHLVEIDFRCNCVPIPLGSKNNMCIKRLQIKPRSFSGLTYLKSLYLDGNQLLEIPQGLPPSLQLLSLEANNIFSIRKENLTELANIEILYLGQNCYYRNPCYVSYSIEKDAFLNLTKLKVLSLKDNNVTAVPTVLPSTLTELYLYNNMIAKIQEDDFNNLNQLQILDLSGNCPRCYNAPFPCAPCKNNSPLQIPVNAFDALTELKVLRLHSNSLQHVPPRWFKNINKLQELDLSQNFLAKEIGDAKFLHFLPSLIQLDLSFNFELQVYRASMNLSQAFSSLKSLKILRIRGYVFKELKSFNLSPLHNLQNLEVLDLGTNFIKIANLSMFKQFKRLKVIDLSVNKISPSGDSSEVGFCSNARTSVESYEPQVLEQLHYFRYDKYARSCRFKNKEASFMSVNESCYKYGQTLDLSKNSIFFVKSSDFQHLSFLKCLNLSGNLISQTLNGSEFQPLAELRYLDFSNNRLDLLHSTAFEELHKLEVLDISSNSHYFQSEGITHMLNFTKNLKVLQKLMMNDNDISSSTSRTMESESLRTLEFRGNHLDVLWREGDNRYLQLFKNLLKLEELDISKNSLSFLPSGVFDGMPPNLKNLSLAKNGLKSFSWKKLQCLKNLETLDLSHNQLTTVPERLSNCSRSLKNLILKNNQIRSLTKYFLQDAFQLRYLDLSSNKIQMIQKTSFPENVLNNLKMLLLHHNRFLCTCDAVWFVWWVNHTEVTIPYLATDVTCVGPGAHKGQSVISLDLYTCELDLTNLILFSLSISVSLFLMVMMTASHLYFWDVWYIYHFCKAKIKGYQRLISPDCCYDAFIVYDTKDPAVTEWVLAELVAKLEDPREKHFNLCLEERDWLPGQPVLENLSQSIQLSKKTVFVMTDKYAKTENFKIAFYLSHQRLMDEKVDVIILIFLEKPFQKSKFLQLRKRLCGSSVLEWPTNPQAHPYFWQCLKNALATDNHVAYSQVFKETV
The data set can be described thus: Activation of human TLR7 expressed in HEK293 cells assessed as increase in NF-kappaB activation at 100 ug/ml by SEAP assay. The class given is cell-based.

Data set [3] has as its target T2, Toll-like receptor 8 (Homo sapiens) (UniProt Q9NR97).
T2 sequence (whole entry): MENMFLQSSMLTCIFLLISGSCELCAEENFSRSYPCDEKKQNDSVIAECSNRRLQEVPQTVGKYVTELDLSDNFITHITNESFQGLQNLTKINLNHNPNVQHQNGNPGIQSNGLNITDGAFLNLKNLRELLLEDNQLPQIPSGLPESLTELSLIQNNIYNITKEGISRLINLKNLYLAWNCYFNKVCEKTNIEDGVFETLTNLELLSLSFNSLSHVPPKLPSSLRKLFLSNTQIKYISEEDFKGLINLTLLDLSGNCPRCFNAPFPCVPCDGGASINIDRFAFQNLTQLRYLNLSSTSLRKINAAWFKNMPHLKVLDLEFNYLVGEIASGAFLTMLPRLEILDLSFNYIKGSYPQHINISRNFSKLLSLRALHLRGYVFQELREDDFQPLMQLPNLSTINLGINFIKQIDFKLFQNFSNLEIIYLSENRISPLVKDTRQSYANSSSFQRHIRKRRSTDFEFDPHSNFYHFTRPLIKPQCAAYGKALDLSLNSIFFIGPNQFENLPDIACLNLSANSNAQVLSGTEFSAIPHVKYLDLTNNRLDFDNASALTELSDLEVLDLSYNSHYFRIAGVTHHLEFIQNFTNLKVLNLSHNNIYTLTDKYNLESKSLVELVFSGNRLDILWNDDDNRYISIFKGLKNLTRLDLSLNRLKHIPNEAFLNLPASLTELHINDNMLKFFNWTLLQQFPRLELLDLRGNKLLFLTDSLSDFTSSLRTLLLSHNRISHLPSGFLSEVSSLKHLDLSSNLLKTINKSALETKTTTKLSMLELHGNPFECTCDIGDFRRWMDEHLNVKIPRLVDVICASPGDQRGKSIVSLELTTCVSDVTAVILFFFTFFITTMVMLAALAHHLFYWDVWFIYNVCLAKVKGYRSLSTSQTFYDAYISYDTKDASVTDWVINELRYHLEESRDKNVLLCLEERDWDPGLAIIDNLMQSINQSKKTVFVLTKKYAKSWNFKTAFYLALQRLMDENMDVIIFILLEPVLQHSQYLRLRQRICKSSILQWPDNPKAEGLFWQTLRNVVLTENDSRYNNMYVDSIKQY
As to the kind of experiment: Activation of human TLR8 expressed in HEK293 cells assessed as increase in NF-kappaB activation at 100 ug/ml by SEAP assay. Format: cell-based.

Regarding `Nc1ccn([C@@H]2O[C@H](COP(O)(=S)O[C@H]3[C@@H](O)[C@H](n4ccc(N)nc4=O)O[C@@H]3COP(O)(=S)O[C@H]3[C@@H](O)[C@H](n4cnc5c(=O)[nH]c(N)nc54)O[C@@H]3COP(O)(=S)O[C@H]3[C@@H](O)[C@H](n4ccc(N)nc4=O)O[C@@H]3COP(O)(=S)O[C@H]3[C@@H](O)[C@H](n4ccc(=O)[nH]c4=O)O[C@@H]3COP(O)(=S)O[C@H]3[C@@H](O)[C@H](n4cnc5c(N)ncnc54)O[C@@H]3COP(O)(=S)O[C@H]3[C@@H](O)[C@H](n4ccc(N)nc4=O)O[C@@H]3COP(O)(=S)O[C@H]3[C@@H](O)[C@H](n4cnc5c(N)ncnc54)O[C@@H]3COP(O)(=S)O[C@H]3[C@@H](O)[C@H](n4cnc5c(=O)[nH]c(N)nc54)O[C@@H]3COP(O)(=S)O[C@H]3[C@@H](O)[C@H](n4cnc5c(N)ncnc54)O[C@@H]3COP(O)(=S)O[C@H]3[C@@H](O)[C@H](n4cnc5c(N)ncnc54)O[C@@H]3CO)[C@@H](OP(O)(=S)OC[C@H]3O[C@@H](n4ccc(=O)[nH]c4=O)[C@H](O)[C@@H]3OP(O)(=S)OC[C@H]3O[C@@H](n4cnc5c(=O)[nH]c(N)nc54)[C@H](O)[C@@H]3OP(O)(=S)OC[C@H]3O[C@@H](n4cnc5c(=O)[nH]c(N)nc54)[C@H](O)[C@@H]3OP(O)(=S)OC[C@H]3O[C@@H](n4ccc(=O)[nH]c4=O)[C@H](O)[C@@H]3OP(O)(=S)OC[C@H]3O[C@@H](n4ccc(=O)[nH]c4=O)[C@H](O)[C@@H]3OP(O)(=S)OC[C@H]3O[C@@H](n4cnc5c(N)ncnc54)[C@H](O)[C@@H]3O)[C@H]2O)c(=O)n1` (stereo partly specified), the remaining at 10 min in data set [1] (read-out: Stability) is 1%. Also, the result in data set [2] was inactive.
For `Nc1ccn([C@@H]2O[C@H](CO)[C@@H](OP(O)(=S)OC[C@H]3O[C@@H](n4ccc(=O)[nH]c4=O)[C@H](O)[C@@H]3OP(O)(=S)OC[C@H]3O[C@@H](n4ccc(=O)[nH]c4=O)[C@H](O)[C@@H]3OP(O)(=S)OC[C@H]3O[C@@H](n4ccc(=O)[nH]c4=O)[C@H](O)[C@@H]3OP(O)(=S)OC[C@H]3O[C@@H](n4cnc5c(=O)[nH]c(N)nc54)[C@H](O)[C@@H]3OP(O)(=S)OC[C@H]3O[C@@H](n4cnc5c(=O)[nH]c(N)nc54)[C@H](O)[C@@H]3OP(O)(=S)OC[C@H]3O[C@@H](n4ccc(=O)[nH]c4=O)[C@H](O)[C@@H]3OP(O)(=S)OC[C@H]3O[C@@H](n4cnc5c(=O)[nH]c(N)nc54)[C@H](O)[C@@H]3OP(O)(=S)OC[C@H]3O[C@@H](n4ccc(=O)[nH]c4=O)[C@H](O)[C@@H]3OP(O)(=S)OC[C@H]3O[C@@H](n4cnc5c(=O)[nH]c(N)nc54)[C@H](O)[C@@H]3OP(O)(=S)OC[C@H]3O[C@@H](n4ccc(=O)[nH]c4=O)[C@H](O)[C@@H]3OP(O)(=S)OCC(O)COP(O)(=S)O[C@H]3[C@@H](O)[C@H](n4ccc(=O)[nH]c4=O)O[C@@H]3COP(O)(=S)O[C@H]3[C@@H](O)[C@H](n4cnc5c(=O)[nH]c(N)nc54)O[C@@H]3COP(O)(=S)O[C@H]3[C@@H](O)[C@H](n4ccc(=O)[nH]c4=O)O[C@@H]3COP(O)(=S)O[C@H]3[C@@H](O)[C@H](n4cnc5c(=O)[nH]c(N)nc54)O[C@@H]3COP(O)(=S)O[C@H]3[C@@H](O)[C@H](n4ccc(=O)[nH]c4=O)O[C@@H]3COP(O)(=S)O[C@H]3[C@@H](O)[C@H](n4cnc5c(=O)[nH]c(N)nc54)O[C@@H]3COP(O)(=S)O[C@H]3[C@@H](O)[C@H](n4cnc5c(=O)[nH]c(N)nc54)O[C@@H]3COP(O)(=S)O[C@H]3[C@@H](O)[C@H](n4ccc(=O)[nH]c4=O)O[C@@H]3COP(O)(=S)O[C@H]3[C@@H](O)[C@H](n4ccc(=O)[nH]c4=O)O[C@@H]3COP(O)(=S)O[C@H]3[C@@H](O)[C@H](n4ccc(=O)[nH]c4=O)O[C@@H]3COP(O)(=S)O[C@H]3[C@@H](O)[C@H](n4ccc(N)nc4=O)O[C@@H]3CO)[C@H]2O)c(=O)n1` (stereo partly specified), the remaining at 10 min in data set [1] (read-out: Activity) came out at 79%. Also, the result in data set [3] was inactive.
Consider `Nc1ccn([C@@H]2O[C@H](COP(O)(=S)O[C@H]3[C@@H](O)[C@H](n4ccc(=O)[nH]c4=O)O[C@@H]3COP(O)(=S)O[C@H]3[C@@H](O)[C@H](n4ccc(N)nc4=O)O[C@@H]3COP(O)(=S)O[C@H]3[C@@H](O)[C@H](n4cnc5c(N)ncnc54)O[C@@H]3COP(O)(=S)O[C@H]3[C@@H](O)[C@H](n4cnc5c(=O)[nH]c(N)nc54)O[C@@H]3COP(O)(=S)O[C@H]3[C@@H](O)[C@H](n4ccc(=O)[nH]c4=O)O[C@@H]3COP(O)(=S)O[C@H]3[C@@H](O)[C@H](n4cnc5c(=O)[nH]c(N)nc54)O[C@@H]3COP(O)(=S)O[C@H]3[C@@H](O)[C@H](n4ccc(=O)[nH]c4=O)O[C@@H]3COP(O)(=S)O[C@H]3[C@@H](O)[C@H](n4cnc5c(=O)[nH]c(N)nc54)O[C@@H]3COP(O)(=S)O[C@H]3[C@@H](O)[C@H](n4ccc(=O)[nH]c4=O)O[C@@H]3COP(O)(=S)O[C@H]3[C@@H](O)[C@H](n4ccc(=O)[nH]c4=O)O[C@@H]3COP(O)(=S)O[C@H]3[C@@H](O)[C@H](n4cnc5c(=O)[nH]c(N)nc54)O[C@@H]3COP(O)(=S)O[C@H]3[C@@H](O)[C@H](n4ccc(=O)[nH]c4=O)O[C@@H]3COP(O)(=S)O[C@H]3[C@@H](O)[C@H](n4ccc(N)nc4=O)O[C@@H]3COP(O)(=S)O[C@H]3[C@@H](O)[C@H](n4ccc(=O)[nH]c4=O)O[C@@H]3COP(O)(=S)O[C@H]3[C@@H](O)[C@H](n4cnc5c(=O)[nH]c(N)nc54)O[C@@H]3COP(O)(=S)O[C@H]3[C@@H](O)[C@H](n4ccc(N)nc4=O)O[C@@H]3COP(O)(=S)O[C@H]3[C@@H](O)[C@H](n4ccc(N)nc4=O)O[C@@H]3COP(O)(=S)O[C@H]3[C@@H](O)[C@H](n4ccc(N)nc4=O)O[C@@H]3COP(O)(=S)O[C@H]3[C@@H](O)[C@H](n4cnc5c(=O)[nH]c(N)nc54)O[C@@H]3CO)[C@@H](O)[C@H]2O)c(=O)n1` (stereo partly specified), for which the remaining at 10 min in data set [1] (read-out: Stability) was 47%. The outcome in data set [2] was inactive.
